Measured values reported in patent US20260234161A1, “RIFABUTIN ANALOGS FOR THE TREATMENT OF BACTERIAL DISEASES” (BIOVERSYS AG, priority 2023, published 2026).
Converted amounts (≈) assume the structure as drawn.

Experiments:
Format in all cases: cell-based
[1] = tested on: S. aureus (UAMS-1625 strain); assay: MIC by broth microdilution, S. aureus; conditions: Staphylococcus aureus, 20 h, read-out: MIC S. aureus
Method: (§1) MIC values were determined by broth microdilution method according to the CLSI guidelines with the following exceptions: MIC against A. baumannii was performed in RPMI medium supplemented with 10% FCS and MIC against M. abscessus was performed in Middlebrook 7H9 broth supplemented with Middlebrook ADC growth supplement (10%; see column “M. abscessus 7H9”). MIC forM abscessus was determined a second time in standard cation adjusted Mueller Hinton broth without growth supplement (see colum “M. abscessus MH”). All other MIC were performed in standard cation adjusted Mueller Hinton broth, supplemented with Middlebrook ADC growth supplement (5%) for the slow growing mycobacteria (M. xenopi, M. kansasii and M. avium).
(§2) The following procedure applies to all species tested, except forM xenopi. From a fresh culture plate (from overnight to several days depending on the bacteria), cells were resuspended in 0.9% (w/v) saline solution and bacterial inoculum was prepared in the respective testing medium with 5×10^5 CFU/mL. For M. xenopi, the inoculum was prepared from a fresh liquid culture (7H9+ADC). The appropriate volumes of a 10 mg/mL compound solution were directly dispensed in the 96-well assay plate using a digital dispenser to create two-fold dilution series from 32 to 0.002 μg/mL final concentration for A. baumannii and S. aureus; from 16 to 0.016 μg/mL for M. abscessus and M. avium; and from 1 to 6×10^−5 μg/mL for M. kansasii and M. xenopi. 100 μL of bacterial suspension was finally added to the compounds. Plates were covered and incubated without shaking at 35° C. for 20 hours for A. baumanii and S. aureus; at 30° C. for 4 days for M. abscessus; and at 37° C. for 7 days (at least) for M. kansasii (covered with aluminum foil to avoid light exposure), M. avium and M. xenopi. Every experiment contained an antibiotic as quality control. MIC was determined visually as the lowest concentration of a compound that prevents visible growth of the bacteria.
(§3) The in vitro activity of compounds described herein was determined against S. aureus (UAMS-1625 strain), A. baumannii (HUMC1 strain), M. abscessus (ATCC 19977), M. kansasii (ATCC 12478), M. avium (ATCC 25291), and M. xenopi (ATCC 19250).

[2] = tested on: A. baumannii (HUMC1 strain); assay: MIC by broth microdilution, A. baumannii (RPMI + 10% FCS); conditions: Acinetobacter baumannii; HUMC1 strain; RPMI medium + 10% FCS; 35° C., 20 hours; read-out: MIC A. baumannii
Method: as §1, §2, §3

[3] = tested on: M. abscessus (ATCC 19977); assay: MIC by broth microdilution, M. abscessus in cation adjusted Mueller Hinton broth; conditions: Mycobacteroides abscessus
Method: as §1, §2, §3

M. kansasii (ATCC 12478) = assay: MIC by broth microdilution, M. kansasii; conditions: Mycobacterium kansasii, ATCC12478, 168 h, cation adjusted Mueller Hinton broth + ADC (5%), 37° C., 7 days (at least)
Method: as §1, §2, §3

M. xenopi (ATCC 19250) = assay: MIC by broth microdilution, M. xenopi; conditions: Mycobacterium xenopi, ATCC19250, 168 h, cation adjusted Mueller Hinton broth + ADC (5%), 37° C., 7 days (at least)
Method: as §1, §2, §3

M. avium (ATCC 25291) = assay: MIC by broth microdilution, M. avium; conditions: Mycobacterium avium, ATCC25291, 168 h, cation adjusted Mueller Hinton broth + ADC (5%), 37° C., 7 days (at least)
Method: as §1, §2, §3

[4] = tested on: M. abscessus (ATCC 19977); assay: MIC by broth microdilution, M. abscessus in Middlebrook 7H9 broth + ADC; conditions: Mycobacteroides abscessus
Method: as §1, §2, §3

[5] = ATCC19977, 96 h, ATCC 19977, cation adjusted Mueller Hinton broth without growth supplement, 30° C., 4 days, read-out: MIC M. abscessus MH

Compound | MIC [1] [µg/mL] | MIC [2] [µg/mL] | MIC [3, 5] [µg/mL] | MIC (M. kansasii (ATCC 12478)) [µg/mL] | MIC (M. xenopi (ATCC 19250)) [µg/mL] | MIC (M. avium (ATCC 25291)) [µg/mL] | MIC ([4]; ATCC19977, 96 h, ATCC 19977, Middlebrook 7H9 broth + ADC growth supplement (10%), 30° C., 4 days, read-out: MIC M. abscessus 7H9) [µg/mL] | MIC ([4]; ATCC19977, 7H9 broth, read-out: MIC value against M. abscessus in 7H9 broth) [µg/mL] | MIC ([3]; ATCC19977, Mueller Hinton broth, read-out: MIC value against M. abscessus in Mueller Hinton broth) [µg/mL]
CO[C@H]1/C=C/O[C@@]2(C)Oc3c(C)c(O)c4c(c3C2=O)C2=NC3(CCN(CC(C)C)CC3)NC2=C(NC(=O)/C(C)=C\C=C\[C@H](C)[C@H](O)[C@@H](C)[C@@H](O)[C@@H](C)[C@H](OC(=O)N2CCC3(CCN(C)CC3)CC2)[C@@H]1C)C4=O [Compound 21] | 0.06 (≈ 0.06 µM) | ≤ 0.016 | 2 (≈ 2 µM) | 0.125 | 0.25 | 0.5 | – | – | –
CCCCN1CCC(NC(=O)O[C@H]2[C@H](C)[C@H](O)[C@H](C)[C@@H](O)[C@@H](C)/C=C/C=C(/C)C(=O)NC3=C4NC5(CCN(CC(C)C)CC5)N=C4c4c(c(O)c(C)c5c4C(=O)[C@@](C)(O/C=C/[C@H](OC)[C@H]2C)O5)C3=O)CC1 [Compound 30] | 0.06 (≈ 0.0608 µM) | ≤ 0.016 | 0.5 (≈ 0.506 µM) | 0.016 | 0.06 | 0.125 | – | – | –
CCCCN1CCN(C(=O)O[C@H]2[C@H](C)[C@H](O)[C@H](C)[C@@H](O)[C@@H](C)/C=C/C=C(/C)C(=O)NC3=C4NC5(CCN(CC(C)C)CC5)N=C4c4c(c(O)c(C)c5c4C(=O)[C@@](C)(O/C=C/[C@H](OC)[C@H]2C)O5)C3=O)CC1 [Compound 50] | 0.125 (≈ 0.128 µM) | 0.03 | 0.25 (≈ 0.257 µM) | 0.008 | 0.008 | 0.125 | – | – | –
CO[C@H]1/C=C/O[C@@]2(C)Oc3c(C)c(O)c4c(c3C2=O)C2=NC3(CCN(CC(C)C)CC3)NC2=C(NC(=O)/C(C)=C\C=C\[C@H](C)[C@H](O)[C@@H](C)[C@@H](O)[C@@H](C)[C@H](OC(=O)N2CCN(CC3CC3)CC2)[C@@H]1C)C4=O [Compound 56] | 0.125 (≈ 0.129 µM) | ≤ 0.016 | 0.25 (≈ 0.257 µM) | 0.004 | 0.008 | 0.06 | – | – | –
CO[C@H]1/C=C/O[C@@]2(C)Oc3c(C)c(O)c4c(c3C2=O)C2=NC3(CCN(CC(C)C)CC3)NC2=C(NC(=O)/C(C)=C\C=C\[C@H](C)[C@H](O)[C@@H](C)[C@@H](O)[C@@H](C)[C@H](OC(=O)N2CCC(NC(C)C)CC2)[C@@H]1C)C4=O [Compound 63] | 0.06 (≈ 0.0617 µM) | ≤ 0.016 | 2 (≈ 2.06 µM) | 0.125 | 0.25 | 0.5 | – | – | –
CO[C@H]1/C=C/O[C@@]2(C)Oc3c(C)c(O)c4c(c3C2=O)C2=NC3(CCN(CC(C)C)CC3)NC2=C(NC(=O)/C(C)=C\C=C\[C@H](C)[C@H](O)[C@@H](C)[C@@H](O)[C@@H](C)[C@H](OC(=O)N2C[C@H]3CN(CC5CCCCC5)C[C@H]3C2)[C@@H]1C)C4=O [Compound 67] | 1 (≈ 0.962 µM) | 0.06 | 0.125 (≈ 0.12 µM) | 0.003 | 0.004 | 0.016 | – | – | –
CO[C@H]1/C=C/O[C@@]2(C)Oc3c(C)c(O)c4c(c3C2=O)C2=NC3(CCN(CC(C)C)CC3)NC2=C(NC(=O)/C(C)=C\C=C\[C@H](C)[C@H](O)[C@@H](C)[C@@H](O)[C@@H](C)[C@H](OC(=O)N2CCC3(CCN(CC5CCCCC5)CC3)CC2)[C@@H]1C)C4=O [Compound 72] | 0.25 (≈ 0.231 µM) | 0.06 | 0.25 (≈ 0.231 µM) | 0.0004 | 0.008 | 0.03 | – | – | –
CO[C@H]1/C=C/O[C@@]2(C)Oc3c(C)c(O)c4c(c3C2=O)C2=NC3(CCN(CC(C)C)CC3)NC2=C(NC(=O)/C(C)=C\C=C\[C@H](C)[C@H](O)[C@@H](C)[C@@H](O)[C@@H](C)[C@H](OC(=O)NC2CCN(C3CCCCC3)CC2)[C@@H]1C)C4=O [Compound 77] | 0.06 (≈ 0.0592 µM) | ≤ 0.016 | 1 (≈ 0.987 µM) | 0.03 | 0.06 | 0.25 | – | – | –
CO[C@H]1/C=C/O[C@@]2(C)Oc3c(C)c(O)c4c(c3C2=O)C2=NC3(CCN(CC(C)C)CC3)NC2=C(NC(=O)/C(C)=C\C=C\[C@H](C)[C@H](O)[C@@H](C)[C@@H](O)[C@@H](C)[C@H](OC(C)=O)[C@@H]1C)C4=O [Rifabutin, rifabutin] | 0.016 (≈ 0.0189 µM) | ≤ 0.002 | 16 (≈ 18.9 µM) | – | – | – | 8 | 8 | 16 (≈ 18.9 µM)
